The values that follow come from paper PMC7206119, “RIP1 inhibition blocks inflammatory diseases but not tumor growth or metastases” (Cell Death and Differentiation, 2019).

Some targets named below: EPHB2 (Homo sapiens, UniProt P29323); ANKK1 (Homo sapiens, UniProt Q8NFD2); EPHB1 (Homo sapiens, UniProt P54762); AAK1 (Homo sapiens, UniProt Q2M2I8); SRMS (Homo sapiens, UniProt Q9H3Y6); TLK1 (Homo sapiens, UniProt Q9UKI8); RIPK1 (Homo sapiens, UniProt Q13546); PIM1 (Homo sapiens, UniProt P11309); AXL (Homo sapiens, UniProt P30530); EPHB4 (Homo sapiens, UniProt P54760); NLK (Homo sapiens, UniProt Q9UBE8); RIOK3 (Homo sapiens, UniProt O14730); CAMK4 (Homo sapiens, UniProt Q16566); ROS1 (Homo sapiens, UniProt P08922); WNK1 (Homo sapiens, UniProt Q9H4A3); STK39 (Homo sapiens, UniProt Q9UEW8).

Holding throughout (assay): biochemical
Set-up in all cases: DiscoverX kinase panel, active-site competition binding (KINOMEscan type), percent of control at one concentration
What all share (conditions): competition binding, percent of control

Experiment [1] has as its target T1, RSK4(Kin.Dom.2-C-terminal) (Homo sapiens, UniProt Q9UK32).
T1 construct: gene RPS6KA6; Kin.Dom.2-C-terminal

The target in another experiment is T2, TRKC (Homo sapiens, UniProt Q16288).
T2 construct: gene NTRK3

A further experiment has as its target T3, QSK (Homo sapiens, UniProt Q9Y2K2).
T3 construct: gene SIK3

A further experiment addresses T4, MST4 (Homo sapiens, UniProt Q9P289).
T4 construct: gene STK26

A further experiment concerns the target T5, MEK2 (Homo sapiens, UniProt P36507).
T5 construct: gene MAP2K2

The next experiment deals with T6, ASK1 (Homo sapiens, UniProt Q99683).
T6 construct: gene MAP3K5
T6 sequence (Q99683 whole entry): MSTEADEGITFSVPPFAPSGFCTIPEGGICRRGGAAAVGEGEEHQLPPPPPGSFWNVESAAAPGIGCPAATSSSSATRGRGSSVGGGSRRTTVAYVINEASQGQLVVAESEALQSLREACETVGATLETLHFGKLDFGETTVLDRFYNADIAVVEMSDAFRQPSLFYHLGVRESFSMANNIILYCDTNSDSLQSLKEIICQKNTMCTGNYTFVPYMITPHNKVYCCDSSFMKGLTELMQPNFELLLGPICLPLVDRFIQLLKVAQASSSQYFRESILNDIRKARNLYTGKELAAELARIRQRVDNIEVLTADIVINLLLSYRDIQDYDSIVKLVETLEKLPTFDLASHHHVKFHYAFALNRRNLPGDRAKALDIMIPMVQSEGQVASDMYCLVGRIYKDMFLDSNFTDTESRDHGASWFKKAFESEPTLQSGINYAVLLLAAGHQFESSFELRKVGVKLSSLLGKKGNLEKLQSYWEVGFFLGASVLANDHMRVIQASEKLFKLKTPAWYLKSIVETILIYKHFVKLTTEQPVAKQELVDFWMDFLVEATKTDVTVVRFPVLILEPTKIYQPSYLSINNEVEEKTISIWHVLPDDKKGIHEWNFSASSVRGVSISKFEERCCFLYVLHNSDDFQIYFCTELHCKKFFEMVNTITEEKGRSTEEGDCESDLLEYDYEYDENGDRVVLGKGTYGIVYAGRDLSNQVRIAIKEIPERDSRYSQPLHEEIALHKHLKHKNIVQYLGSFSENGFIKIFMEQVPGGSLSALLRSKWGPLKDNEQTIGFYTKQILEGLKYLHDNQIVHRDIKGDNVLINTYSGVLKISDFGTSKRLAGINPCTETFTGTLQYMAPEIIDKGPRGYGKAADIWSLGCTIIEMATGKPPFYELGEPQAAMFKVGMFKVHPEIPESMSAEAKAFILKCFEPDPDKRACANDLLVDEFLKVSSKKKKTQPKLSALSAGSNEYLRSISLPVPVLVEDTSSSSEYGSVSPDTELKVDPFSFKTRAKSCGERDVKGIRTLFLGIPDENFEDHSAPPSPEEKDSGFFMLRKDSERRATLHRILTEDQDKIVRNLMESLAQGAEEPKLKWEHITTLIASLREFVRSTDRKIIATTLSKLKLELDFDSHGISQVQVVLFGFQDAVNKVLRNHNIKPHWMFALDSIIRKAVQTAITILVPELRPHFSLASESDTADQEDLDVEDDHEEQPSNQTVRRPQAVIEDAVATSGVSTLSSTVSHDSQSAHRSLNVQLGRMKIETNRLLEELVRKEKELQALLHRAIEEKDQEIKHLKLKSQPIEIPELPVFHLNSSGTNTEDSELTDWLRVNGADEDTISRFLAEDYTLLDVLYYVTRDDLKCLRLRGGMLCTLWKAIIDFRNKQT

Chain of RIPK1 (Q13546 whole entry): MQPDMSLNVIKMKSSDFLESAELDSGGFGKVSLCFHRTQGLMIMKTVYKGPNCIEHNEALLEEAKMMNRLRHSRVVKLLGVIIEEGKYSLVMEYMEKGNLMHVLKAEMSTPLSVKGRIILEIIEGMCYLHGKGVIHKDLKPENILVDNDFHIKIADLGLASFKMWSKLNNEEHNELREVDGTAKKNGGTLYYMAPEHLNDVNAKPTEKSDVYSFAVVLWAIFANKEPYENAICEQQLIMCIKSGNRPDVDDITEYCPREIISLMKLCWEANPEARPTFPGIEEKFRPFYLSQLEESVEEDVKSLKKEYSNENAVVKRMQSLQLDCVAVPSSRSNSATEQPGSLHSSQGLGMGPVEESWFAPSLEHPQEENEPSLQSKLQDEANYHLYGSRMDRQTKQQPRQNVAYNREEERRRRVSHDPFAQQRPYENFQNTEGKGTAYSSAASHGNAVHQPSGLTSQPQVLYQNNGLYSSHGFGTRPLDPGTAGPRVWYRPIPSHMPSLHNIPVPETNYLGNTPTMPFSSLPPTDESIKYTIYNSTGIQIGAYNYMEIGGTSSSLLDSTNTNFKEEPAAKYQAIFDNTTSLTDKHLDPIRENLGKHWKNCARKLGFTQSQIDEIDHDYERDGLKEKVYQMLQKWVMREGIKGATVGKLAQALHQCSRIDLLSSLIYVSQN
Chain of ANKK1 (Q8NFD2 whole entry): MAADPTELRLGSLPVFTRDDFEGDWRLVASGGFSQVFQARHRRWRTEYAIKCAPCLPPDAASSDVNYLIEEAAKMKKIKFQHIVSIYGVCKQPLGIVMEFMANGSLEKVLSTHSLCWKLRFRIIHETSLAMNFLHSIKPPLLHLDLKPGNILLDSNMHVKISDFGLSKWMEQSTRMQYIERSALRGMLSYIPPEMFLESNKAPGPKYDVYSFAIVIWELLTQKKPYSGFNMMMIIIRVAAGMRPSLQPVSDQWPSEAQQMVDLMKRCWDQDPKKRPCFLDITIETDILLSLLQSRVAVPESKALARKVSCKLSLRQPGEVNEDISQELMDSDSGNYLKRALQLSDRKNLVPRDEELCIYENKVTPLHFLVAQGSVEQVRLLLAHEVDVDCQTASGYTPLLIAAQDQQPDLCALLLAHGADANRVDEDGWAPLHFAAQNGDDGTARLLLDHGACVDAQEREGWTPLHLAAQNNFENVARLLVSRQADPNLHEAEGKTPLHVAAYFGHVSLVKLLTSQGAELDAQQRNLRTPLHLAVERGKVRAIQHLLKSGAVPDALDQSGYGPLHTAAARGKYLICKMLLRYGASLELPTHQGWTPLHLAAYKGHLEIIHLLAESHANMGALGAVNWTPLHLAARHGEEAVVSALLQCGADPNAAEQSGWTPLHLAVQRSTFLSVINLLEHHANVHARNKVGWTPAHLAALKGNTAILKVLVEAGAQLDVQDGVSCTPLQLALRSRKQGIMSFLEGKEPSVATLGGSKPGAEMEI
T4 sequence (Q9P289 whole entry): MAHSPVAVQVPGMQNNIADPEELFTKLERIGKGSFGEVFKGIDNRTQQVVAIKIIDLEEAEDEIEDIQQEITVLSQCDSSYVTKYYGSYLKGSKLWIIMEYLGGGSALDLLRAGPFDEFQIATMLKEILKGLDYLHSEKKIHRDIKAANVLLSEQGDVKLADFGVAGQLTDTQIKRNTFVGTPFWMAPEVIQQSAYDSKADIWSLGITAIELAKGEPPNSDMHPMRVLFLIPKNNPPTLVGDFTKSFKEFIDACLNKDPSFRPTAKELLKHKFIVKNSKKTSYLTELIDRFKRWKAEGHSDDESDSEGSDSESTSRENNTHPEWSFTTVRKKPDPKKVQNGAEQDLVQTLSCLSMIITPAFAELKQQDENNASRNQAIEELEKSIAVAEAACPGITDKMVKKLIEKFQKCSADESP
Chain of EPHB4 (P54760 whole entry): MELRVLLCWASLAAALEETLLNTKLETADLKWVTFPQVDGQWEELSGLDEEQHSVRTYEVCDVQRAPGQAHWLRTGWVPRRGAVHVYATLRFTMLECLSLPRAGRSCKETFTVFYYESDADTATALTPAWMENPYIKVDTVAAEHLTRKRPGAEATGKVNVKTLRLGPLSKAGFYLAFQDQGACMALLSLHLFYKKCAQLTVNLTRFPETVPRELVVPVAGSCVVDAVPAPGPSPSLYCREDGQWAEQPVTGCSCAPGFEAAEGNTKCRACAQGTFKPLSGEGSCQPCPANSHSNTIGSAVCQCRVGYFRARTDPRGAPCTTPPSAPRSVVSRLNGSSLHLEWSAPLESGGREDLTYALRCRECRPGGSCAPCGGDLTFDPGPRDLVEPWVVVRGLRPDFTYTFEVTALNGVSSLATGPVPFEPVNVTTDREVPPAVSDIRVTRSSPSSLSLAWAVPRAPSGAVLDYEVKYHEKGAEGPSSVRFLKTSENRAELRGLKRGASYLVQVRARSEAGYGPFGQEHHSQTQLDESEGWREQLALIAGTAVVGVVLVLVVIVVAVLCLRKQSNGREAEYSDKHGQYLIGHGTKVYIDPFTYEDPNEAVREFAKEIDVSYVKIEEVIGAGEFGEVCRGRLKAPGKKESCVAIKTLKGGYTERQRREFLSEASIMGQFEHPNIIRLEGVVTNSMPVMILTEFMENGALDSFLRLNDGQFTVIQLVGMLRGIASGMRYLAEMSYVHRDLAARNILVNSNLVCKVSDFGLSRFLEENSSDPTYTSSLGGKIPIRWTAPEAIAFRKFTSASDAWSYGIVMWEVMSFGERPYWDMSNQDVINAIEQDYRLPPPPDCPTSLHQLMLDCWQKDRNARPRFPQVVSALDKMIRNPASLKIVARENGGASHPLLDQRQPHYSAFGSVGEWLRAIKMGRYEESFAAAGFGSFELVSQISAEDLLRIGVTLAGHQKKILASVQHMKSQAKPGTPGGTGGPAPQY
Chain of TLK1 (Q9UKI8 whole entry): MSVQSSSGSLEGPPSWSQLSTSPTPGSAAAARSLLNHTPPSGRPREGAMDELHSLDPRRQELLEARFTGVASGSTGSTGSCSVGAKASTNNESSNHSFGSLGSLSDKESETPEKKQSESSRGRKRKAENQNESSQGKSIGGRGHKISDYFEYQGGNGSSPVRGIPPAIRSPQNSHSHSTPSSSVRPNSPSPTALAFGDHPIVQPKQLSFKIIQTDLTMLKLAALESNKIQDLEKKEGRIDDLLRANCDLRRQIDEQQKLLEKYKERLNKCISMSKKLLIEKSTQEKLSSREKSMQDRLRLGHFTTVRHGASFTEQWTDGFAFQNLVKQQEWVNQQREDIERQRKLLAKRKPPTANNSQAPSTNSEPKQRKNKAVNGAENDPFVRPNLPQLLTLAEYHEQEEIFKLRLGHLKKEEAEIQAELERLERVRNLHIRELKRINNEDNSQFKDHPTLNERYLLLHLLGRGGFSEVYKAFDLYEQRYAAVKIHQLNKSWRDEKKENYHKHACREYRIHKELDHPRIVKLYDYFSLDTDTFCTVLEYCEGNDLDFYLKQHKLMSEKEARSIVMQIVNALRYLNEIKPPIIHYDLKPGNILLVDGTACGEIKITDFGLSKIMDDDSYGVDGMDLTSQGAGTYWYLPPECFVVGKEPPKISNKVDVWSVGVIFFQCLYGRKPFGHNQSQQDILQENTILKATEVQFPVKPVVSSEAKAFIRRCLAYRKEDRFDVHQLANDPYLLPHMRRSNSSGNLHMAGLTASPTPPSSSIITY

For `COc1cc2c(cn1)N(C)C(=O)[C@@H](NC(=O)c1nc3n(n1)[C@H](c1ccccc1)CC3)CC2` [GNE684, (S)-N-((S)-7-methoxy-1-methyl-2-oxo-2,3,4,5-tetrahydro-1H-pyrido[3,4-b]azepin-3-yl)-5-phenyl-6,7-dihydro-5H-pyrrolo[1,2-b][1,2,4]triazole-2-carboxamide], the remaining binding at 10 µM was determined as 82% at EPHB2; 98% on ANKK1; 100% at EPHB1; 95% in experiment [1]; 100% on AAK1; 100% at SRMS. Moreover, the remaining binding at 10 µM is 69% at TRKC; 97% on TLK1; 0% at RIPK1; 100% on PIM1; 96% at AXL; 100% at EPHB4. The remaining binding at 10 µM was 97% at QSK; 100% on MST4; 94% at NLK; 100% at RIOK3; 80% at MEK2; 97% at ASK1. In addition, the remaining binding at 10 µM stood at 86% on CAMK4, 96% at ROS1, 100% on WNK1 and 97% at STK39.
